Measurements from the supplement of paper PMC10307832.

Key:
Assay in all cases: relative viability (nuclei count vs DMSO), 5 days (fraction); higher = more cells survive
[1] = compound: CC1=CC(=CC=C1)NC2=NC(=CS2)C3=CC=NC=C3 + COc1cc2c(Oc3ccc(NC(=O)C4(C(=O)Nc5ccc(F)cc5)CC4)cc3F)ccnc2cc1OCCCN1CCOCC1 [Foretinib] (partner 0.25 µM)
Method in brief: (§1)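 Relative viability was taken as the ratio of nuclei in treated wells to nuclei in vehicle wells. Lung cancer cell lines in 1536-well plates received compounds by pin tool one day after seeding, either one drug alone or a fixed anchor-drug dose plus five library-drug doses (not always all listed) in √10 steps. Nuclei were counted on 4× images after 5 days of treatment, and values are medians of duplicate plates.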

[2] = compound: CC1=CC(=CC=C1)NC2=NC(=CS2)C3=CC=NC=C3 + Nc1ncn([C@H]2C[C@H](O)[C@@H](CO)O2)c(=O)n1 [Decitabine] (partner 2 µM)
Method in brief: as §1

Masitinib + Navitoclax = compound: Cc1ccc(NC(=O)c2ccc(CN3CCN(C)CC3)cc2)cc1Nc1nc(-c2cccnc2)cs1 [Masitinib] + CC1(C)CCC(c2ccc(Cl)cc2)=C(CN2CCN(c3ccc(C(=O)NS(=O)(=O)c4ccc(N[C@H](CCN5CCOCC5)CSc5ccccc5)c(S(=O)(=O)C(F)(F)F)c4)cc3)CC2)C1 [Navitoclax] (partner 0.5 µM)
Method in brief: as §1

Masitinib + Decitabine = compound: Cc1ccc(NC(=O)c2ccc(CN3CCN(C)CC3)cc2)cc1Nc1nc(-c2cccnc2)cs1 [Masitinib] + Nc1ncn([C@H]2C[C@H](O)[C@@H](CO)O2)c(=O)n1 [Decitabine] (partner 2 µM)
Method in brief: as §1

Cell Line	relative viability ([1]; first compound 0.08 µM)	relative viability ([1]; first compound 0.253 µM)	relative viability ([1]; first compound 0.8 µM)	relative viability ([1]; first compound 2.53 µM)	relative viability ([1]; first compound 8 µM)	relative viability ([2]; first compound 0.08 µM)	relative viability ([2]; first compound 0.253 µM)	relative viability ([2]; first compound 0.8 µM)	relative viability ([2]; first compound 2.53 µM)	relative viability ([2]; first compound 8 µM)	relative viability (Masitinib + Navitoclax; first compound 0.01 µM)	relative viability (Masitinib + Navitoclax; first compound 0.03162 µM)	relative viability (Masitinib + Navitoclax; first compound 0.1 µM)	relative viability (Masitinib + Navitoclax; first compound 0.3162 µM)	relative viability (Masitinib + Navitoclax; first compound 1 µM)	relative viability (Masitinib + Decitabine; first compound 0.01 µM)	relative viability (Masitinib + Decitabine; first compound 0.03162 µM)	relative viability (Masitinib + Decitabine; first compound 0.1 µM)	relative viability (Masitinib + Decitabine; first compound 0.3162 µM)	relative viability (Masitinib + Decitabine; first compound 1 µM)
NCI-H2009	1.2	1.11	1.14	1.22	1.18	0.342	0.425	0.385	0.411	0.376	1.16	1.12	1.16	1.17	1.13	0.368	0.332	0.409	0.406	0.371
NCI-H2023	0.81	0.712	0.778	1.09	0.681	0.239	0.223	0.245	0.203	0.216	1.05	0.981	1.12	0.925	0.92	0.205	0.271	0.327	0.195	0.187
NCI-H2085	0.903	0.994	0.989	0.95	0.759	0.479	0.532	0.504	0.452	0.457	1.1	1.23	1.33	1.16	1.03	0.55	0.522	0.511	0.536	0.509
NCI-H2087	0.996	1.12	0.994	1.05	0.688	0.264	0.293	0.281	0.263	0.238	0.966	1.02	1.1	1.08	0.963	0.25	0.247	0.32	0.223	0.254
NCI-H2126	0.858	1.11	1.08	0.982	0.862	0.525	0.56	0.559	0.572	0.578	0.761	0.807	0.842	0.823	0.798	0.58	0.499	0.586	0.505	0.567
NCI-H2170	0.975	1.05	0.986	0.976	0.893	0.426	0.399	0.437	0.43	0.361	0.683	0.486	0.546	0.577	0.559	0.467	0.473	0.509	0.488	0.449
NCI-H2347	0.926	0.721	0.855	0.994	0.842	0.622	0.596	0.53	0.602	0.591	0.709	0.764	0.79	0.861	0.764	0.598	0.529	0.614	0.669	0.652
NCI-H2405	0.914	0.942	0.786	0.99	1	0.694	0.678	0.686	–	0.671	0.874	1.01	1.07	0.731	0.825	0.688	0.692	0.762	0.764	0.692
NCI-H3122	0.885	0.967	0.984	0.971	1.01	0.366	0.443	0.449	0.467	0.522	1.03	1.04	1.04	1.09	1.04	0.528	0.484	0.525	0.467	0.451
PC-3 [JPC-3]	0.975	0.928	0.911	0.918	0.824	0.783	–	0.865	0.72	0.756	0.768	0.682	0.806	0.659	0.787	0.828	0.771	0.824	0.819	0.785
PC-14	0.875	0.891	0.889	0.959	0.928	0.174	0.186	0.187	0.177	0.217	1.05	0.89	0.991	1.04	0.937	0.217	0.202	0.192	0.16	0.25
RERF-LC-KJ	0.847	0.874	0.718	0.78	0.762	0.675	0.64	0.62	0.522	0.387	0.986	–	1.07	0.873	0.541	0.631	0.71	0.743	0.762	0.618
SK-LU-1	0.767	0.886	–	0.781	0.76	0.624	0.625	0.563	0.617	0.726	0.927	1.05	1.04	1	0.869	0.569	0.526	0.725	0.594	0.646
SK-MES-1	0.687	0.78	0.751	1.04	0.8	0.37	0.361	0.367	0.373	0.378	1.29	1.23	1.24	1.17	0.99	0.329	0.399	0.376	0.39	0.337
SW 1573	0.818	0.872	0.97	0.986	0.869	0.48	0.409	0.441	0.454	0.485	0.975	1.05	1.09	1.19	0.972	0.492	0.537	0.535	0.51	0.471
UMC-11	1.04	1.04	1.02	1.15	1.17	0.56	0.552	0.572	0.626	0.714	0.286	0.321	0.353	0.338	0.353	0.565	0.641	0.692	0.608	0.596
